Results from patent publication US5028609A, “Alkyl diamine derivatives” (Alkaloida Vegyeszeti Gyar, priority 1983, dated 1991).

Tests used:
[1] = test system: aconitine arrhythmia on rats; assay: preventive aconitine arrhythmia test on rats; type: in vivo, rats of Wistar strain; conditions: for arrhythmia appearance time: ± S.E., 30 min monitoring; for responders at 4 mg/kg: read-out: positive cases, 4.0 mg/kg i.v., 2 min before aconitine
Procedure: The antiarrhythmic activity of the compounds of the Formula I was compared in a preventive aconitine arrhythmia test on rats as follows:
rats of Wistar strain weighing 200 to 250 g. were narcotized i.p. with 1.25 g./kg. of urethane and their ECG was registered by a Hellige equipment by II standard limb head.
Arrhythmia was induced by an i.v. infusion of 30 /ug/kg. aconitine nitrate whereafter the ECG was continuously monitored for 30 minutes.
Those cases were considered positive, where within 30 minutes after the aconitine infusion not a single phase of the arrhythmia occurred.
In control animals pretreated i.v. with a 0.9% sodium chloride solution (0.1 ml./100 g.) (n=20) the arrhythmogenic activity of the aconitine nitrate appeared after 2.88±0.32 minutes.
Per cent values of the positive cases, average time of the appearance of the arrhythmia-when the induced arrhythmia appeared within 30 minutes and toxicity values are shown.

[2] = test system: arrhythmia in rats; assay: arrhythmia test carried out in rats according to Zetler and Strubelt (ED125, ED150); type: in vivo; conditions: Rattus norvegicus, iv
Procedure: In cases of compounds having outstanding antiarrhythmic activity ED125 and ED150 values were calculated in arrhythmia test carried out in rats according to Zetler and Strubelt (Arzneim.-Forsch.) Drug.

[3] = test system: white mice; assay: acute intravenous toxicity, method of Litchfield and Wilcoxon; type: in vivo; conditions: i.v.
Procedure: (§1) The acute intravenous (i.v.) toxicity values of the testcompounds was determined by the method of Litchfield and Wilcoxon and as test-animals white mice of both sexes were used (J. of Pharmacol. 1949, 96, 99.).

[4] = as above; type: in vivo; conditions: mouse, in vivo, iv, mice
Procedure: as §1

[5] = Rattus norvegicus, iv, 0.5 h, no arrhythmia within 30 min = positive

## COc1cc(C(=O)NCCCNC(=O)C2=CC(C)(C)NC2(C)C)cc(OC)c1OC [I/2]
[1]; 12.0 mg/kg i.v.
  arrhythmia appearance time: 16.7 ± 1.7 min
[1]; Rattus norvegicus, iv, 0.5 h, read-out: positive cases, 12.0 mg/kg i.v., 2 min before aconitine, no arrhythmia within 30 min = positive
  responders at 12 mg/kg: 70%
[2]
  ED125: 7.6 mg/kg
  ED150: 12.3 mg/kg
[3]
  LD50: 119 mg/kg

## CC=Cc1ccc(OCC(=O)NCCCNC(=O)C2=CC(C)(C)NC2(C)C)c(OC)c1 [I/8]
[1]; 3.0 mg/kg i.v.
  arrhythmia appearance time: > 30 min
[1]; Rattus norvegicus, iv, 0.5 h, read-out: positive cases, 3.0 mg/kg i.v., 2 min before aconitine, no arrhythmia within 30 min = positive
  responders at 3 mg/kg: 100%
[2]
  ED125: 1.5 mg/kg
  ED150: 2.2 mg/kg
[4]
  LD50: 30 mg/kg

## C=CCc1ccc(OCC(=O)NCCCNC(=O)C2=CC(C)(C)NC2(C)C)c(OC)c1 [I/9, N-(2-methoxy-4-allyl)-phenoxy-acetyl-N'-(2,2,5,5-tetramethyl-3-pyrroline-3-carbonyl)-1,3-propylene-diamine]
[1]; 1.9 mg/kg i.v.
  arrhythmia appearance time: > 30 min
[1]; Rattus norvegicus, iv, 0.5 h, read-out: positive cases, 1.9 mg/kg i.v., 2 min before aconitine, no arrhythmia within 30 min = positive
  responders at 1.9 mg/kg: 100%
[2]
  ED125: 0.7 mg/kg
  ED150: 1.4 mg/kg
[3]
  LD50: 19 mg/kg

## C=CCc1cc(C)ccc1OCC(=O)NCCCNC(=O)C1=CC(C)(C)NC1(C)C [I/11]
[1]; 1.4 mg/kg i.v.
  arrhythmia appearance time: 20.1 ± 2.5 min
[1]; Rattus norvegicus, iv, 0.5 h, read-out: positive cases, 1.4 mg/kg i.v., 2 min before aconitine, no arrhythmia within 30 min = positive
  responders at 1.4 mg/kg: 80%
[2]
  ED125: 1.4 mg/kg
  ED150: 2.4 mg/kg
[3]
  LD50: 14 mg/kg

## CC1(C)C=C(C(=O)NCCCNC(=O)CSc2ccccc2)C(C)(C)N1 [I/12]
[1]; 4.0 mg/kg i.v.
  arrhythmia appearance time: 28.5 min
[1]; [5]
  responders at 4 mg/kg: 90%
[2]
  ED125: 4.6 mg/kg
  ED150: 6.95 mg/kg
[3]
  LD50: 38 mg/kg

## CC1(C)C=C(C(=O)NCCCNC(=O)Cc2cccs2)C(C)(C)N1 [I/19]
[1]; 7.0 mg/kg i.v.
  arrhythmia appearance time: 27.5 ± 2.5 min
[1]; Rattus norvegicus, iv, 0.5 h, read-out: positive cases, 7.0 mg/kg i.v., 2 min before aconitine, no arrhythmia within 30 min = positive
  responders at 7 mg/kg: 80%
[2]
  ED125: 2 mg/kg
  ED150: 3.1 mg/kg
[3]
  LD50: 71 mg/kg

## CC=Cc1ccc(OCC(=O)NCCNC(=O)C2=CC(C)(C)NC2(C)C)c(OC)c1 [I/21]
[1]; 4.0 mg/kg i.v.
  arrhythmia appearance time: > 30 min
[1]; [5]
  responders at 4 mg/kg: 100%
[2]
  ED125: 2.4 mg/kg
  ED150: 4.1 mg/kg
[4]
  LD50: 18 mg/kg

## CC=Cc1ccc(OC(C)C(=O)NCCCNC(=O)C2=CC(C)(C)NC2(C)C)c(OC)c1 (stereo not drawn) [I/22]
[1]; 4.0 mg/kg i.v.
  arrhythmia appearance time: > 30 min
[1]; [5]
  responders at 4 mg/kg: 100%
[2]
  ED125: 1.9 mg/kg
  ED150: 2.7 mg/kg
[4]
  LD50: 14 mg/kg

## CC1(C)C=C(C(=O)NCCNCc2cccs2)C(C)(C)N1 [I/36]
[1]; 4.0 mg/kg i.v.
  arrhythmia appearance time: 15.9 ± 0.3 min
[1]; [5]
  responders at 4 mg/kg: 70%
[2]
  ED125: 4.5 mg/kg
  ED150: 7.6 mg/kg
[4]
  LD50: 49 mg/kg

## CC1(C)C=C(C(=O)NCCCNCc2ccccc2)C(C)(C)N1 [I/38]
[1]; 4.0 mg/kg i.v.
  arrhythmia appearance time: 27.5 min
[1]; [5]
  responders at 4 mg/kg: 90%
[2]
  ED125: 2.2 mg/kg
  ED150: 3.6 mg/kg
[3]
  LD50: 26 mg/kg

## CC1(C)C=C(C(=O)NCCCNCc2cccs2)C(C)(C)N1 [I/44]
[1]; Rattus norvegicus, iv, 0.5 h, read-out: positive cases, 6.5 mg/kg i.v., 2 min before aconitine, no arrhythmia within 30 min = positive
  responders at 6.5 mg/kg: 100%

## CC1(C)C=C(C(=O)NCCCCNCc2cccs2)C(C)(C)N1 [I/49]
[1]; 2.8 mg/kg i.v.
  arrhythmia appearance time: 10.0 min
[1]; Rattus norvegicus, iv, 0.5 h, read-out: positive cases, 2.8 mg/kg i.v., 2 min before aconitine, no arrhythmia within 30 min = positive
  responders at 2.8 mg/kg: 90%
[2]
  ED125: 2.3 mg/kg
  ED150: 4.7 mg/kg
[3]
  LD50: 28 mg/kg

## CC1(C)CC(C(=O)NCCCNCc2cccs2)C(C)(C)N1 (stereo not drawn) [I/50]
[1]; 4.3 mg/kg i.v.
  arrhythmia appearance time: 30 min
[1]; Rattus norvegicus, iv, 0.5 h, read-out: positive cases, 4.3 mg/kg i.v., 2 min before aconitine, no arrhythmia within 30 min = positive
  responders at 4.3 mg/kg: 100%
[2]
  ED125: 2.7 mg/kg
  ED150: 4.2 mg/kg
[3]
  LD50: 43 mg/kg

## CC1(C)CC(C(=O)NCCCNCc2ccc(C(F)(F)F)cc2)C(C)(C)N1 (stereo not drawn) [I/52]
[1]; 4.0 mg/kg i.v.
  arrhythmia appearance time: 7.3 min
[1]; [5]
  responders at 4 mg/kg: 90%
[2]
  ED125: 2.1 mg/kg
  ED150: 2.9 mg/kg
[3]
  LD50: 39 mg/kg

## CC1(C)C=C(C(=O)NCCCNCc2ccsc2)C(C)(C)N1 [I/53]
[1]; 4.0 mg/kg i.v.
  arrhythmia appearance time: 30 min
[1]; [5]
  responders at 4 mg/kg: 100%
[2]
  ED125: 3.4 mg/kg
  ED150: 5.5 mg/kg
[3]
  LD50: 28 mg/kg

## CC1(C)CC(C(=O)NCCCNCc2ccsc2)C(C)(C)N1 (stereo not drawn) [I/54]
[1]; 4.0 mg/kg i.v.
  arrhythmia appearance time: 5.2 ± 0.8 min
[1]; [5]
  responders at 4 mg/kg: 70%
[2]
  ED125: 6.9 mg/kg
  ED150: 13.2 mg/kg
[3]
  LD50: 19 mg/kg

## CC1(C)C=C(C(=O)NCCCN2C(=O)C3CC=CCC3C2=O)C(C)(C)N1 (stereo not drawn) [I/58]
[1]; 11.3 mg/kg i.v.
  arrhythmia appearance time: 13.1 ± 2.5 min
[1]; Rattus norvegicus, iv, 0.5 h, read-out: positive cases, 11.3 mg/kg i.v., 2 min before aconitine, no arrhythmia within 30 min = positive
  responders at 11.3 mg/kg: 50%
[3]
  LD50: 113 mg/kg

## CC1(C)C=C(C(=O)NCCN2C(=O)c3ccccc3C2=O)C(C)(C)N1 [I/59]
[1]; 5.5 mg/kg i.v.
  arrhythmia appearance time: 30 min
[1]; Rattus norvegicus, iv, 0.5 h, read-out: positive cases, 5.5 mg/kg i.v., 2 min before aconitine, no arrhythmia within 30 min = positive
  responders at 5.5 mg/kg: 100%
[2]
  ED125: 4.2 mg/kg
  ED150: 7.9 mg/kg
[3]
  LD50: 55 mg/kg

## CC1(C)C=C(C(=O)NCCCN2C(=O)c3ccccc3C2=O)C(C)(C)N1 [I/60]
[1]; 2.3 mg/kg i.v.
  arrhythmia appearance time: 26.0 min
[1]; Rattus norvegicus, iv, 0.5 h, read-out: positive cases, 2.3 mg/kg i.v., 2 min before aconitine, no arrhythmia within 30 min = positive
  responders at 2.3 mg/kg: 90%
[2]
  ED125: 1.4 mg/kg
  ED150: 2.6 mg/kg
[3]
  LD50: 23 mg/kg

## CC1(C)C=C(C(=O)NCC(O)CN2C(=O)c3ccccc3C2=O)C(C)(C)N1 (stereo not drawn) [I/61]
[1]; 4.0 mg/kg i.v.
  arrhythmia appearance time: 30 min
[1]; [5]
  responders at 4 mg/kg: 100%
[2]
  ED125: 1.9 mg/kg
  ED150: 3 mg/kg
[3]
  LD50: 28 mg/kg

## CC1(C)CC(C(=O)NCCCN2C(=O)c3ccccc3C2=O)C(C)(C)N1 (stereo not drawn) [I/62]
[1]; 4.0 mg/kg i.v.
  arrhythmia appearance time: 30 min
[1]; [5]
  responders at 4 mg/kg: 100%
[2]
  ED125: 2.6 mg/kg
  ED150: 4.5 mg/kg
[3]
  LD50: 22 mg/kg

## CC1(C)C=C(C(=O)NCCCNC(=O)c2ccccc2C(=O)O)C(C)(C)N1 [I/68, N-(2,2,5,5-tetramethyl-3-pyrroline-3-carbonyl)-N'-(2-carboxybenzoyl)-1,3-diaminopropane]
[1]; 41.9 mg/kg i.v.
  arrhythmia appearance time: 4.6 ± 0.7 min
[1]; Rattus norvegicus, iv, 0.5 h, read-out: positive cases, 41.9 mg/kg i.v., 2 min before aconitine, no arrhythmia within 30 min = positive
  responders at 41.9 mg/kg: 40%
[3]
  LD50: 419 mg/kg

## Cc1nc2ccccc2c(=O)n1CCCNC(=O)C1=CC(C)(C)NC1(C)C [I/70, 2-Methyl-3-[3-(2,2,5,5-tetramethyl-3-pyrroline-3-carbonyl-amino)-propyl]-quinazoline-4(3H)-one]
[1]; 4.0 mg/kg i.v.
  arrhythmia appearance time: 30 min
[1]; [5]
  responders at 4 mg/kg: 100%
[2]
  ED125: 2.5 mg/kg
  ED150: 4.5 mg/kg
[3]
  LD50: 31 mg/kg

## CCc1nc2ccccc2c(=O)n1CCNC(=O)C1=CC(C)(C)NC1(C)C [I/71]
[1]; 4.0 mg/kg i.v.
  arrhythmia appearance time: 30 min
[1]; [5]
  responders at 4 mg/kg: 100%
[2]
  ED125: 3.8 mg/kg
  ED150: 10.5 mg/kg
[3]
  LD50: 48 mg/kg

## CCc1nc2ccccc2c(=O)n1CCCNC(=O)C1=CC(C)(C)NC1(C)C [I/72]
[1]; 4.0 mg/kg i.v.
  arrhythmia appearance time: 30 min
[1]; [5]
  responders at 4 mg/kg: 100%
[2]
  ED125: 1.1 mg/kg
  ED150: 1.7 mg/kg
[3]
  LD50: 13 mg/kg

## CCc1nc2ccccc2c(=O)n1CCCNC(=O)C1CC(C)(C)NC1(C)C (stereo not drawn) [I/74]
[1]; 4.0 mg/kg i.v.
  arrhythmia appearance time: 30 min
[1]; [5]
  responders at 4 mg/kg: 100%
[2]
  ED125: 1.9 mg/kg
  ED150: 2.7 mg/kg
[3]
  LD50: 22 mg/kg

## CCN(CC)CCNC(=O)c1ccc(N)cc1 [procainamide, reference compound]
[1]; 8.0 mg/kg i.v.
  arrhythmia appearance time: 9.5 ± 1.2 min
[1]; Rattus norvegicus, iv, 0.5 h, read-out: positive cases, 8.0 mg/kg i.v., 2 min before aconitine, no arrhythmia within 30 min = positive
  responders at 8 mg/kg: 30%
[2]
  ED125: 11 mg/kg
  ED150: 14 mg/kg
[4]
  LD50: 141 mg/kg

## C=C[C@H]1C[N@@]2CC[C@H]1C[C@@H]2[C@@H](O)c1ccnc2ccc(OC)cc12 [quinidine, reference compound]
[1]; 9.5 mg/kg i.v.
  arrhythmia appearance time: 10.0 ± 0.4 min
[1]; Rattus norvegicus, iv, 0.5 h, read-out: positive cases, 9.5 mg/kg i.v., 2 min before aconitine, no arrhythmia within 30 min = positive
  responders at 9.5 mg/kg: 70%
[2]
  ED125: 7.8 mg/kg
  ED150: 10.8 mg/kg
[4]
  LD50: 95 mg/kg
